In patent US20210163929A1, “METHODS AND COMPOSITIONS FOR THE TREATMENT OF HEPATIC AND METABOLIC DISEASES” (The Regents of the University of California, priority 2018, published 2021):
“Also recorded” adds a separate entry of the source.

Columns and labels:
miR-22 in HCT116 cells [1] = test: miR-22 induction in HCT116 cells treated with bile acids or HDAC inhibitors; format: cell-based, human; conditions: 24 hours, CDCA 50, 100, 150 μM, OCA 25 and 50 μM
miR-22 in HCT116 cells [2] = test: as above; format: cell-based, human; conditions: CDCA 150 μM
Description: A time course study in which HCT116 cells were treated by 150 μM CDCA for indicated times. […] Data are presented as mean+/−S.D. * denotes p<0.05.
Data are shown as mean+/−S.D. * p<0.05; ** p<0.01; ***p<0.001.
OCA is a semi-synthetic bile acid, which as the structure of 6α-ethyl-chenodeoxycholic acid.

miR-22 = conditions: published data; cited from earlier work
[3] = tested on: FGF21 signaling and miR-22 in Huh7 cells; test: mRNA and protein levels in Huh7 cells treated with OCA/INT-747, CDCA, butyrate or RA plus butyrate; format: cell-based, human; conditions: CDCA 150 μM
Description: (§1) Cell culture: Huh7 cells were obtained from Japanese Collection of Research Bioresources and maintained in DMEM with 10% FBS. Cells were treated with DMSO, OCA (5 or 20 μM; Apexbio Technology LLC, Houston, Tex., USA) in serum-free media for indicated time. Cells were plated (1×10^6 cells per 60-mm dish, 2×10^5 cells per 6-well plates, and 1×10^5 cells per 24-well plates) overnight prior to treatment or infection.
Gene expression quantification: Total RNA was extracted using TRIzol Reagent (Thermo Fisher Scientific, Waltham, Mass., USA), and cDNA was generated using High Capacity RNA-to-cDNA Kit (Applied Biosysterms, Carlsbad, Calif., USA). qRT-PCR was performed on ABI 7900HT Fast Real-time PCR system using Power SYBR® Green PCR Master Mix (Applied Biosysterms).
(§2) Western blot: Western blot was performed as described previously (26). Antibodies used were anti-FGFR1, FGF21, FASN, phosphor (P)-AMPK, total (T)-AMPK, phosphor (P)-ERK1/2, and total (T)-ERK1/2 (Cell Signaling Technology, Beverly, Mass., USA), β-ACTIN (MilliporeSigma), CD36 (Bioss Antibodies Inc., Woburn, Mass., USA), CYCLIN A2, PGC1α (Novus Biologicals, LLC, Littleton, Colo., USA), and PPARα (Santa Cruz Biotechnology, Santa Cruz, Calif., USA).

[4] = tested on: FGF21 signaling in Huh7 cells; test: Huh7 cells infected/transfected with miR-22 or miR-22 inhibitors, mRNA and Western blot; format: cell-based, human
Text: However, miR-22 was induced in the livers and adipose tissues of WD-fed mice (FIG. 15B). Similarly, using human liver biopsy specimens, miR-22 levels were positively associated with hepatic fat content and inversely correlated with the mRNA levels of PGC-1α, a key regulator of mitochondrial biogenesis (FIG. 15C). […] To study the downstream effects of miR-22, miR-22 mimics (ID: MIMAT0000077, […] (SEQ ID NO:2), Applied Biological Materials Inc.) were used to transfect human liver Huh7 cells.
as §1
(§3) Constructs and luciferase reporter assay: The 3′ untranslated region (3′-UTR) of the FGFR1 gene containing the putative binding site for miR-22 and the entire 3′-UTR of the FGF21 gene (105 bp) was cloned into the psiCHECK2 vector (Promega, Madison, Wis., USA) using NotI and XhoI. For cell infection, adenovirus (negative control), adenoviral-delivered miR-22 (miR-22), or adenoviral-miR-22 inhibitors (SEQ ID NO:1; Applied Biological Materials Inc., Richmond, BC) were used. Forty-eight h post infection, cells were transfected with psiCHECK2-FGR1-3′UTR or psiCHECK2-FGF21 3′UTR using Lipofectamine 2000 (Thermo Fisher Scientific). Twenty-four h later, cells were harvested for firefly and Renilla luciferase assay using the Dual-luciferase Reporter system (Promega). Renilla luciferase activity was standardized to firefly luciferase activity.
as §2

[5] = tested on: alcohol-induced steatosis in C57BL/6 mice; test: Alcohol-induced steatosis in mice treated with adenoviral miR-22 inhibitors; format: in vivo, mouse; conditions: FIG. 29E
Description: We performed another pilot experiment to test the effect of miR-22 inhibitors in reducing alcohol-induced steatosis. The same method described above for FIG. 2C was used to induce steatosis followed by miR-22 inhibitor treatment through tail vein injection.
Additionally, alcohol was used to induce fatty liver. Mice were on Liber DeCarli liquid diet supplemented with 5% alcohol for 3 weeks followed by delivery of adenoviral-control and adenoviral-miR-22 inhibitors using the same methods described above. During the interventions, mice continued having alcohol-supplemented liquid diet.
3-month old WT male mice were fed with Liber DeCarli diet with 5% alcohol supplementation for 3 weeks followed by adenovirus delivery of miR-22 inhibitor (1×10^9PFU) through tail vein injection (3 times in 10 days). The empty adenovirus was used as a negative control. The mice were killed 1 day after the last injection. Steatosis scored was graded on a scale of a scale of 0 (<5%), 1 (5-33%), 2 (34-66%), and 3 (>66%). […]
Biochemical analysis: Hepatic triglyceride and cholesterol (BioAssay Systems, Hayward, Calif., USA) levels and serum lipopolysaccharide (LPS) (Thermo Fisher Scientific), alanine transaminase (ALT) (Pointe Scientific), and alkaline phosphatase (ALP) (Pointe Scientific) levels were quantified according to the manufacturer's instructions.

[6] = tested on: Western diet-induced steatosis in C57BL/6 mice; test: Pilot study in Western diet-fed mice, tail vein adenoviral miR-22 mimics or inhibitors; format: in vivo, mouse
Description: Wild type C57BL/6 mice were fed with a high fat and high sucrose (21.2% fat, 34% sucrose, and 0.2% cholesterol) Western diet (WD) since weaning (3 weeks). When mice were 2.5 months old, they received adenoviral-delivery of miR-22 mimics or miR-22 inhibitors (i.e., SEQ ID NO:1) via tail vein injection (1×10^9 PFU/100 μl saline, 3 doses in 10 days). […] In addition, hepatic Pgc1α mRNA level was reduced by miR-22 mimics, but increased by miR-22 inhibitors (FIG. 10).
To further analyze the role miR-22 in regulating hepatic metabolism, we have done pilot studies to test the effect of miR-22 in non-alcoholic and alcoholic steatohepatitis. Steatosis was induced by feeding mice with a WD that has high fat and high sucrose content since weaning (3-weeks old). After 2 months of differential diet feeding, mild steatosis was found in WD-fed mice. Then, those WD-fed mice received adenoviral-control, adenoviral-delivered miR-22 mimics, or miR-22 inhibitors (i.e., SEQ ID NO:1) via tail vein injection (1×10^9 pfu/200 μl, 3 doses, weekly) while continuing a WD. […] These exciting findings indicate that forced miR-22 expression in WD-fed mice potentially can be a novel NASH model.

3′UTR of FGF21 = test: Luciferase reporter assay, psiCHECK2-FGF21 3′UTR in Huh7 cells; format: cell-based, human; conditions: 48 h infection then reporter transfection
Text: as §3

[7] = tested on: PPREs in the regulatory region of FGF21; test: ChIP-qPCR of PPARα and PGC1α occupancy in Huh7 cells; format: cell-based, human; conditions: miR-22 overexpression
Description: Chromatin immunoprecipitation (ChIP)-qPCR: ChIP-qPCR was performed based on a previous publication (27). Briefly, chromatin lysate was precleared before incubation with anti-PGC1α (Novus Biologicals) and anti-PPARα (Santa Cruz Biotechnology). IgG (Santa Cruz Biotechnology) and RNA Polymerase II antibody (MilliporeSigma) was used as negative and positive control, respectively. Samples were incubated with Dynase beads at 4° C. overnight followed by de-crosslinking and purification. DNA fragments generated served as templates for qPCR using Power SYBR Green PCR Master Mix.

[8] = tested on: mice after 2/3 liver resection; test: 2/3 liver resection in mice given miR-22 inhibitors or mimics; format: in vivo, mouse; conditions: compared to other groups
Description: The data presented in FIGS. 38 and 39 further support the usefulness of miR-22 inhibition. For the experiments used to generate the data in FIG. 38, mice received miR-22 inhibitors or miR-22 mimics via tail vein injection 3 days prior to 2/3 liver resection (1×10^9 pfu in 100 μL saline, one injection per day). Mice were killed on day 0 (immediately after liver resection) or 2 days later.

[9] = tested on: HDAC1, HDAC4 and CYCLIN A2 in Huh7 and HCT116 cells; test: Deacetylase protein levels after miR-22 in Huh7 and HCT116 cells; format: cell-based, human
3′UTR of FGFR1 = test: Luciferase reporter assay, psiCHECK2-FGFR1 3′UTR in Huh7 cells; format: cell-based, human; conditions: 48 h infection then reporter transfection
Text: as §3

[10] = WD-fed C57BL/6 mice 2.5 months old, tail vein 1×10^9 PFU/100 μl, 3 doses in 10 days

| Compound | miR-22 level (miR-22 in HCT116 cells [1]) | FGF21 and miR-22 levels (miR-22 in HCT116 cells [2]) | miR-22 induction (miR-22) | FGF21 and miR-22 levels [3] | expression of βKlotho [4] | total AMPK [4] | PPARα and PGC1α protein levels ([4]; 48 h post infection) | AMPK and ERK1/2 activation (P-AMPK, P-ERK1/2) ([4]; miR-22 overexpression) | FGF21 and FGFR1 (SIRT1, p-AMPK) levels ([4]; miR-22 overexpression) | FGF21 and FGFR1 (SIRT1, p-AMPK) levels ([4]; miR-22 overexpression, listed as miR-22) | hepatic gene expression (PGC1α, CPT1, SREBP-1c, FASN, TNFα) [5] | hepatic Pgc1α mRNA level [6, 10] | hepatic lymphocyte infiltration [6, 10] | severity of steatosis / hepatic fat content [6, 10] | liver histology (hepatic fat content, lymphocyte infiltration) ([6]; WD-fed mice after 2 months of diet, tail vein 1×10^9 pfu/200 μl, 3 doses, weekly) | luciferase activity driven by FGF21 3′UTR (3′UTR of FGF21) | occupancy of PPARα and PGC1α in the two PPREs of FGF21 [7] | liver-to-body weight ratio and fat-to-body weight ratio [8] | protein level of HDAC1, HDAC4 and CYCLIN A2 [9] | luciferase activity driven by FGFR1 3′UTR (3′UTR of FGFR1) |
| --- | --- | --- | --- | --- | --- | --- | --- | --- | --- | --- | --- | --- | --- | --- | --- | --- | --- | --- | --- | --- |
| C[C@H](CCC(=O)O)[C@H]1CC[C@H]2[C@@H]3[C@H](O)C[C@@H]4C[C@H](O)CC[C@]4(C)[C@H]3CC[C@]12C [CDCA, chenodeoxycholic acid] | induced miR-22 | induced FGF21 and miR-22 levels | induced | induced FGF21 and miR-22 levels | – | – | – | – | – | – | – | – | – | – | – | – | – | – | – | – |
| miR-22 mimics: miR-22 mimics (ID: MIMAT0000077, AAGCUGCCAGUUGAAGAACUGU, SEQ ID NO:2), transfected or adenoviral-delivered (chemistry not given here; listed as Homo sapiens) | – | – | – | – | did not affect the expression of βKlotho | had no effect on total AMPK | reduced PPARα and PGC1α | AMPK and ERK1/2 deactivation | reduced the protein level of FGF21, FGFR1 and p-AMPK; also recorded: reduced the protein level of FGF21, FGFR1, and SIRT1 | reduced FGF21 and FGFR1 at both mRNA and protein levels | reduced PGC1α and CPT1, but increased SREBP-1c, FASN, and TNFα | reduced | induced hepatic lymphocyte infiltration | increased the severity of steatosis | increased hepatic fat content and lymphocyte infiltration | neither miR-22 nor miR-22 inhibitors changed the luciferase activity | substantially reduced | substantially higher | reduced the protein level of HDAC1 and HDAC4 as well as CYCLIN A2 | decreased the luciferase activity |
